Assay results reported in patent US20220062296A1, “COMBINATIONS OF GABAA ALPHA 5 AGONISTS AND SV2A INHIBITORS AND METHODS OF USING IN THE TREATMENT OF COGNITIVE IMPAIRMENT” (AGENEBIO, INC., priority 2020, published 2022).
“Also recorded” adds a separate entry of the source.

Key:
[1] = Competitive interconversion slurry experiments between crystalline forms (relative thermodynamic stability); assay type: physicochemical; details: ambient temperature; Form E also 55° C. and 77° C.
Description: Interconversion experiments were performed to identify the most thermodynamically stable anhydrous form of Compound 1 (Table 19). […] The choice of solvent affects the kinetics of polymorph conversion and not the thermodynamic relationship between polymorphic forms.
Various combinations of Forms B, E, F, and Material D were slurried with Form A at ambient and elevated temperatures (for experiments involving Form E). Different solvent systems were used and included a variety of water activities. Saturated solutions were generated and then added to the mixtures composed of approximately equivalent quantities of the forms. The mixtures were slurried for a particular duration of time and the solids harvested and analyzed by XRPD.

[2] = Dynamic vapor sorption (DVS); assay type: physicochemical; details: for form recovered after the DVS experiment (XRPD): post DVS
Description: Dynamic vapor sorption data was collected on a Surface Measurement System DVS Intrinsic instrument. The samples were not dried prior to analysis. Sorption and desorption data were collected over a range from 5% to 95% RH in 10% RH increments under a nitrogen purge. The equilibrium criteria used for the analyses were 0.001 dm/dt weight change in 5 minutes with a minimum step time of 30 minutes and maximum equilibration time of 180 minutes with a 3-minute data logging interval. Data were not corrected for the initial moisture content of the sample. The samples were identified as having low, limited or significant hygroscopicity based on the definitions in the below table.

[3] = Differential scanning calorimetry / thermogravimetry (DSC, TGA); assay type: physicochemical; details: 10° C./min
Description: DSC was performed using a Mettler-Toledo DSC3+ differential scanning calorimeter. A tau lag adjustment is performed with indium, tin, and zinc. The temperature and enthalpy are adjusted with octane, phenyl salicylate, indium, tin and zinc. The adjustment is then verified with octane, phenyl salicylate, indium, tin, and zinc. The sample was placed into a hermetically sealed aluminum DSC pan, the weight was accurately recorded, and the sample was inserted into the DSC cell. A weighed aluminum pan configured as the sample pan was placed on the reference side of the cell. The pan lid was pierced prior to sample analysis. The samples were analyzed from −25° C. to 250° C. at 10° C./min.
Thermogravimetric analyses were performed using a Mettler-Toledo TGA/DSC3+ analyzer. Temperature calibration was performed using calcium oxalate, indium, tin, and zinc. The sample was placed in an aluminum pan. The pan was hermetically sealed, the lid was pierced, and the pan was then inserted into the TG furnace. A weighed aluminum pan configured as the sample pan was placed on the reference platform. The furnace was heated under nitrogen. Samples were analyzed from 25° C. to 350° C. at 10° C./min.

[4] = Storage and stress stability of crystalline forms (XRPD); assay type: physicochemical; details: for stability under ambient storage: ambient conditions
Description: XRPD patterns were collected with a PANalytical X'Pert PRO MPD or a PANalytical Empyrean diffractometer using an incident beam of Cu radiation produced using an Optix long, fine-focus source. An elliptically graded multilayer mirror was used to focus Cu Kα X-rays through the specimen and onto the detector. Prior to the analysis, a silicon specimen (NIST SRM 640e) was analyzed to verify the observed position of the Si 111 peak is consistent with the NIST-certified position. A specimen of the sample was sandwiched between 3-μm-thick films and analyzed in transmission geometry. A beam-stop, short antiscatter extension, and antiscatter knife edge were used to minimize the background generated by air. Sober slits for the incident and diffracted beams were used to minimize broadening from axial divergence. Diffraction patterns were collected using a scanning position-sensitive detector (X'Celerator) located 240 mm from the specimen and Data Collector software v. 5.5.

[5] = tested on: MAM-treated rats; details: cited from earlier work
[6] = tested on: aged-impaired rats; experiment: Water maze probe test after chronic brivaracetam (osmotic mini-pumps); assay type: in vivo, rat; details: 2 mg/kg/day
Description: (§1) The radial arm maze experiments used acute administration of seletracetam (0-4 mg/kg), brivaracetam (0-4 mg/kg), or saline vehicle given by intraperitoneal injection (in a volume of 1 ml/kg) 30-40 min prior to test sessions.
Rats were trained and tested in a novel water maze environment to assess the effect of drug treatment. The water maze used here was housed in a different building and was surrounded by curtains with a novel set of patterns relative to the maze used for initial assessment of cognitive status. The training protocol consisted of 6 trials per day for 2 days to locate a submerged escape platform. On each trial, a rat was released in the maze from one of four equally spaced starting positions around the perimeter of the pool. The starting position varied from trial to trial. […] The rat was then removed from the platform and placed in a holding cage for another 40 s before the next trial. Approximately 24 hr after the last training trial, a probe test in the absence of the escape platform was given to assess spatial memory.

[7] = tested on: memory-impaired aged (AI) rats; experiment: Radial arm maze task with 2-hr retention interval, acute brivaracetam or seletracetam; assay type: in vivo, rat; details: doses 0.0625-4 mg/kg i.p.; repeated measures ANOVA
Description: as §1
A radial arm maze (RAM) task was used to assess effects of acute drug treatment with seletracetam and brivaracetam. This protocol allowed within-subject assessment across drugs at different doses. The radial maze consisted of eight arms projecting from each side of an octagonal center platform, with a food well located at the distal end of each arm. Plexiglas blocks could be positioned to prevent entry into any arm. Extra-maze cues were provided in the room surrounding the maze and illumination was provided by an overhead light.
Pre-training, as described in detail in Chappell et al. Neuropharmacology 37: 481-487, (1998), consisted of habituation, standard win-shift training, and win-shift training with delays interposed between information and memory test phases. Drug treatments began two days after the completion of pre-training. Three arms were blocked at the beginning of each trial (information phase). The identity and configuration of the blocked arms were varied across trials. Food-deprived rats were allowed to retrieve food reward (Kellogg's Froot Loops™ cereal) from the five unblocked arms. […]

COCc1nnc2n1Cc1c(C#Cc3cnc(OC)s3)ncn1-c1ccc(Cl)cc1-2 [Form A]
outcome of solvent-mediated interconversion with Form A (relative thermodynamic stability) [1]: Form A prevailed for each experiment | hygroscopicity (DVS isotherm) ([2]; 5% to 95% RH): low hygroscopicity; also recorded: limited hygroscopicity | weight change through the sorption/desorption cycle ([2]; 5% to 95% RH, no hysteresis): ~0.3% | form recovered after the DVS experiment (XRPD) [2]: same as the starting material | onset of DSC exotherm due to decomposition [3]: about 207 °C

COCc1nnc2n1Cc1c(C#Cc3cnc(OC)s3)ncn1-c1ccc(Cl)cc1-2 [Form B]
outcome of solvent-mediated interconversion with Form A (relative thermodynamic stability) [1]: convert to Form A | onset of DSC exotherm due to decomposition [3]: about 190 °C

COCc1nnc2n1Cc1c(C#Cc3cnc(OC)s3)ncn1-c1ccc(Cl)cc1-2 [Form C]
behaviour upon overnight exposure to 80° C. ([4]; 80° C., overnight): desolvate to Form B | stability under ambient storage [4]: remain unchanged for 9 weeks | onset of DSC exotherm due to decomposition [3]: 190 °C

COCc1nnc2n1Cc1c(C#Cc3cnc(OC)s3)ncn1-c1ccc(Cl)cc1-2 [Form E]
outcome of solvent-mediated interconversion with Form A (relative thermodynamic stability) [1]: metastable relative to Form A | onset of DSC exotherm due to decomposition [3]: ~201 °C

COCc1nnc2n1Cc1c(C#Cc3cnc(OC)s3)ncn1-c1ccc(Cl)cc1-2 [Form F]
behaviour upon exposure to 100° C. ([4]; 100° C.): does dehydrate | stability under vacuum at ambient temperature ([4]; vacuum, ambient temperature): remain unchanged for 5 days | hygroscopicity (DVS isotherm) ([2]; 5% to 95% RH): limited hygroscopicity | weight gain on sorption ([2]; from 5-95% RH): 1.8% | form recovered after the DVS experiment (XRPD) [2]: still Form F | weight loss upon desorption ([2]; significant hysteresis): 1.5% | onset of DSC exotherm due to decomposition [3]: above 120 °C

COCc1nnc2n1Cc1c(C#Cc3cnc(OC)s3)ncn1-c1ccc(Cl)cc1-2 [Material D]
outcome of solvent-mediated interconversion with Form A (relative thermodynamic stability) [1]: convert to Form A | stability under ambient storage [4]: Material D still remained | onset of DSC exotherm due to decomposition [3]: ~174 °C

C#Cc1ccc2c(c1)C(c1ccccc1F)=N[C@H](C)c1c(C(=O)OCC)ncn1-2 [SH-053-2′F—R—CH3]
number of spontaneously active DA neurons in the ventral tegmental area (VTA) ([5]; MAM rats, systemic or infused into the ventral HPC): reduces the number of spontaneously active DA neurons | increased locomotor response to amphetamine ([5]; MAM-treated rats): is reduced | cortical-evoked responses of HPC neurons ([5]; saline-treated and MAM-treated animals): diminished cortical-evoked responses

CCC[C@@H]1CC(=O)N([C@@H](CC)C(N)=O)C1 [brivaracetam, (2S)-2-[(4R)-2-oxo-4-propylpyrrolidin-1-yl]butanamide]
spatial bias for the target quadrant compared to the other control quadrants ([6]; osmotic mini-pumps, started two weeks before, p=0.010): significant spatial bias for the target quadrant | time in the target quadrant vs vehicle-treated rats ([6]; p=0.018): significantly more time in the target quadrant | time in the target annulus vs vehicle-treated rats ([6]; p=0.036): significantly more time in the target annulus | number of errors in the retention phase after the 2-hr delay [7]: significant effect as a function of dose

CC[C@@H](C(N)=O)N1C[C@H](C=C(F)F)CC1=O [seletracetam, (2S)-2-[(4S)-4-(2,2-difluoroethenyl)-2-oxopyrrolidin-1-yl]butanamide]
number of errors in the retention phase after the 2-hr delay [7]: significant effect as a function of dose
